Measurements reported in paper PMC11695965 (Nature Communications, 2025).
Read-outs that look alike come from different tables or passages of the source.

How the values were obtained:
[1] = biological target: T1, CkPTA (phosphotransacetylase) (Clostridium kluyveri, UniProt A5N801); assay: acetyl-CoA formation; type: biochemical
T1 sequence (A5N801 1-333): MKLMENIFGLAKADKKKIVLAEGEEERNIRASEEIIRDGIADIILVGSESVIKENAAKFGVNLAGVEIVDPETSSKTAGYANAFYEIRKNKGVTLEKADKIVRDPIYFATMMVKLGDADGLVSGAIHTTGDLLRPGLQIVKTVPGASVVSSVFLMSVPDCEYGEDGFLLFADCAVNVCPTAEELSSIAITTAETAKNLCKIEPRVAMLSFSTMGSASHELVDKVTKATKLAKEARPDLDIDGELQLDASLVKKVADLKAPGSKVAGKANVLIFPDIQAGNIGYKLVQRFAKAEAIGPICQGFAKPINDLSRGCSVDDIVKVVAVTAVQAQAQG

[2] = biological target: EcDERA (deoxyribose-5-phosphate aldolase); HSA = its T19S/G171A/V206I mutant (Escherichia coli, UniProt P0A6L0)
EcDERA (deoxyribose-5-phosphate aldolase); HSA = its T19S/G171A/V206I mutant, sequence (P0A6L0 whole entry T19S/G171A/V206I): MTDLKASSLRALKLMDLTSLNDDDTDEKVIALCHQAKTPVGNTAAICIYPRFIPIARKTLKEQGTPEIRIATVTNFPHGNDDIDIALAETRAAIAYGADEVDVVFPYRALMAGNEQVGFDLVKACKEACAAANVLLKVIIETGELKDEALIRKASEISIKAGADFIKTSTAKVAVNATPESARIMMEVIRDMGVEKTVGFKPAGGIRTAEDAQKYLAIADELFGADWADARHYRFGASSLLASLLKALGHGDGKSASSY

Compound | acetyl-CoA formation [1] | other results
CC(=O)OP(=O)(O)O [acetyl phosphate] | CkPTA then converted acetyl phosphate into acetyl-CoA as the output product | 
CC(=O)SCCNC(=O)CCNC(=O)[C@H](O)C(C)(C)COP(=O)(O)OP(=O)(O)OC[C@H]1O[C@@H](n2cnc3c(N)ncnc32)[C@H](O)[C@@H]1OP(=O)(O)O [acetyl-CoA] | CkPTA then converted acetyl phosphate into acetyl-CoA as the output product | 
O=C[C@H](O)[C@H](O)COP(=O)(O)O [erythrose 4-phosphate] |  | product formation (H6P) ([2]; with glycolaldehyde): enzyme for the condensation of glycolaldehyde and E4P to H6P
O=CCO [glycolaldehyde] |  | product formation (H6P) ([2]; with erythrose 4-phosphate): deoxyribose-5-phosphate aldolase (EcDERA) showing the highest activity
